According to PubChem BioAssay (NCI):
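Grown in 96-well plates, cells were treated for 48 hours with each compound at five concentrations. Insufficient inhibition: endpoint recorded as highest concentration tested. GI50 marks 50% less growth. TGI marks complete inhibition of growth.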

Experiments:
Experiment in all cases: DTP human tumour cell line panel, 48 h
[1] = tested on: 786-0 renal
[2] = tested on: A498 renal
[3] = tested on: A549 NSCLC
[4] = tested on: ACHN renal
[5] = tested on: BT-549 breast
[6] = tested on: CAKI-1 renal
[7] = tested on: CCRF-CEM leukemia
[8] = tested on: COLO 205 colon
[9] = tested on: DU-145 prostate
[10] = tested on: EKVX NSCLC
[11] = tested on: HCC-2998 colon
[12] = tested on: HCT-116 colon
[13] = tested on: HL-60(TB) leukemia
[14] = tested on: HOP-62 NSCLC
[15] = tested on: HOP-92 NSCLC
[16] = tested on: HS 578T breast
[17] = tested on: HT29 colon
[18] = tested on: IGROV1 ovarian
[19] = tested on: K-562 leukemia
[20] = tested on: KM12 colon
[21] = tested on: LOX IMVI melanoma
[22] = tested on: M14 melanoma
[23] = tested on: MALME-3M melanoma
[24] = tested on: MCF7 breast
[25] = tested on: MDA-MB-231 breast
[26] = tested on: MDA-MB-435
[27] = tested on: MOLT-4 leukemia
[28] = tested on: NCI-H226 lung
[29] = tested on: NCI-H23 lung
[30] = tested on: NCI-H460 lung
[31] = tested on: NCI-H522 lung
[32] = tested on: NCI/ADR-RES ovarian
[33] = tested on: OVCAR-3 ovarian
[34] = tested on: OVCAR-4 ovarian
[35] = tested on: OVCAR-5 ovarian
[36] = tested on: OVCAR-8 ovarian
[37] = tested on: PC-3 prostate
[38] = tested on: RPMI-8226 leukemia
[39] = tested on: RXF 393 renal
[40] = tested on: SF-268 CNS
[41] = tested on: SF-295 CNS
[42] = tested on: SF-539 CNS
[43] = tested on: SK-MEL-2 melanoma
[44] = tested on: SK-MEL-28 melanoma
[45] = tested on: SK-MEL-5 melanoma
[46] = tested on: SK-OV-3 ovarian
[47] = tested on: SN12C renal
[48] = tested on: SNB-19 CNS
[49] = tested on: SNB-75 CNS
[50] = tested on: SR leukemia
[51] = tested on: SW-620 colon
[52] = tested on: T-47D breast
[53] = tested on: TK-10 renal
[54] = tested on: U251 CNS
[55] = tested on: UACC-257 melanoma
[56] = tested on: UACC-62 melanoma
[57] = tested on: UO-31 renal
[58] = tested on: HCT-15 colon

O=C(CCl)Nc1ccc(Cc2ccc(NC(=O)CCl)cc2)cc1
GI50 [1]: 2.09 µM | TGI [1]: 5.1 µM | GI50 [2]: 18.7 µM | TGI [2]: 94.1 µM | GI50 [3]: 4.01 µM | TGI [3]: > 100 µM | GI50 [4]: 1.56 µM | TGI [4]: 3.03 µM | GI50 [5]: 1.4 µM | TGI [5]: 4.69 µM | GI50 [6]: 1.62 µM | TGI [6]: 3.38 µM | GI50 [7]: 0.47 µM | TGI [7]: 3.01 µM | GI50 [8]: 1.97 µM | TGI [8]: 4.12 µM | GI50 [9]: 2.85 µM | TGI [9]: 11 µM | GI50 [10]: 2.23 µM | TGI [10]: 5.78 µM | GI50 [11]: 1.8 µM | TGI [11]: 3.47 µM | GI50 [12]: 0.44 µM | TGI [12]: 1.03 µM | GI50 [13]: 2.07 µM | TGI [13]: 4.84 µM | GI50 [14]: 2.38 µM | TGI [14]: 6.1 µM | GI50 [15]: 2.09 µM | TGI [15]: 5.12 µM | GI50 [16]: 5.37 µM | TGI [16]: > 100 µM | GI50 [17]: 1.73 µM | TGI [17]: 4.47 µM | GI50 [18]: 1.43 µM | TGI [18]: 4.06 µM | GI50 [19]: 1.67 µM | TGI [19]: > 100 µM | GI50 [20]: 1.57 µM | TGI [20]: 3.17 µM | GI50 [21]: 0.784 µM | TGI [21]: 2.35 µM | GI50 [22]: 1.23 µM | TGI [22]: 3.2 µM | GI50 [23]: 1.39 µM | TGI [23]: 3.17 µM | GI50 [24]: 1.54 µM | TGI [24]: > 100 µM | GI50 [25]: 1.54 µM | TGI [25]: 5.06 µM | GI50 [26]: 1.76 µM | TGI [26]: 4.31 µM | GI50 [27]: 1.44 µM | TGI [27]: 6.32 µM | GI50 [28]: 3.14 µM | TGI [28]: > 100 µM | GI50 [29]: 1.77 µM | TGI [29]: 4.52 µM | GI50 [30]: 2.09 µM | TGI [30]: 4.75 µM | GI50 [31]: 1.47 µM | TGI [31]: 3.5 µM | GI50 [32]: 2.84 µM | TGI [32]: > 100 µM | GI50 [33]: 1.17 µM | TGI [33]: 2.48 µM | GI50 [34]: 1.42 µM | TGI [34]: 3.44 µM | GI50 [35]: 2.27 µM | TGI [35]: 5.52 µM | GI50 [36]: 3.17 µM | TGI [36]: > 100 µM | GI50 [37]: 2.13 µM | TGI [37]: 6.42 µM | GI50 [38]: 1.67 µM | TGI [38]: 4.78 µM | GI50 [39]: 1.43 µM | TGI [39]: 3.07 µM | GI50 [40]: 1.83 µM | TGI [40]: 9.56 µM | GI50 [41]: 3.55 µM | TGI [41]: 19.7 µM | GI50 [42]: 1.66 µM | TGI [42]: 3.28 µM | GI50 [43]: 2.46 µM | TGI [43]: 7.54 µM | GI50 [44]: 2.15 µM | TGI [44]: 6.06 µM | GI50 [45]: 1.37 µM | TGI [45]: 2.72 µM | GI50 [46]: 18 µM | TGI [46]: > 100 µM | GI50 [47]: 2.38 µM | TGI [47]: > 100 µM | GI50 [48]: 1.8 µM | TGI [48]: 5.14 µM | TGI [49]: > 29.3 µM | GI50 [50]: 0.704 µM | TGI [50]: 5.56 µM | GI50 [51]: 1.92 µM | TGI [51]: 5.25 µM | GI50 [52]: 1.65 µM | TGI [52]: 4.67 µM | GI50 [53]: 4.17 µM | TGI [53]: > 75 µM | GI50 [54]: 1.4 µM | TGI [54]: 2.98 µM | GI50 [55]: 2.78 µM | TGI [55]: 9.46 µM | GI50 [56]: 1.53 µM | TGI [56]: 3.34 µM | GI50 [57]: 2.77 µM | TGI [57]: > 23.4 µM

C=CCN1C(=O)[C@]2(SC1=S)[C@H](c1cccc(Cl)c1)CN(C)[C@]21C(=O)NC2C=CC(Cl)=C[C@H]21 (stereo not given in full)
GI50 [1]: 1.51 µM | TGI [1]: 3.48 µM | GI50 [2]: 2.7 µM | TGI [2]: 7.48 µM | GI50 [3]: 3.3 µM | TGI [3]: 12.9 µM | GI50 [4]: 2.99 µM | TGI [4]: 13.4 µM | GI50 [5]: 2.06 µM | TGI [5]: 8.49 µM | GI50 [7]: 3.25 µM | TGI [7]: 11.6 µM | GI50 [8]: 1.78 µM | TGI [8]: 4.35 µM | GI50 [9]: 4.16 µM | TGI [9]: 14.6 µM | GI50 [10]: 4.54 µM | TGI [10]: 24.6 µM | GI50 [11]: 5.05 µM | TGI [11]: 19.1 µM | GI50 [12]: 2.88 µM | TGI [12]: 13.9 µM | GI50 [58]: 2.89 µM | TGI [58]: 13.1 µM | GI50 [13]: 1.33 µM | TGI [13]: 3.58 µM | GI50 [14]: 3.59 µM | TGI [14]: 16.2 µM | GI50 [15]: 3.17 µM | TGI [15]: 14.9 µM | GI50 [16]: 3.6 µM | TGI [16]: 21.2 µM | GI50 [17]: 1.67 µM | TGI [17]: 3.85 µM | GI50 [18]: 2.98 µM | TGI [18]: 16.5 µM | GI50 [20]: 1.99 µM | TGI [20]: 6.35 µM | GI50 [21]: 1.73 µM | TGI [21]: 3.95 µM | GI50 [22]: 2.35 µM | TGI [22]: 11.9 µM | GI50 [23]: 2.88 µM | TGI [23]: 12.7 µM | GI50 [24]: 2.68 µM | TGI [24]: 11.7 µM | GI50 [25]: 2 µM | TGI [25]: 8.72 µM | GI50 [26]: 5.9 µM | TGI [26]: 21.5 µM | GI50 [27]: 2.07 µM | TGI [27]: 6.82 µM | GI50 [28]: 1.59 µM | TGI [28]: 3.98 µM | GI50 [29]: 6.12 µM | TGI [29]: 22 µM | GI50 [30]: 3.62 µM | TGI [30]: 13.6 µM | GI50 [31]: 5.79 µM | TGI [31]: 20.6 µM | GI50 [32]: 4.18 µM | TGI [32]: 21.2 µM | GI50 [33]: 3.43 µM | TGI [33]: 14.2 µM | GI50 [34]: 2.13 µM | TGI [34]: 10.2 µM | GI50 [35]: 4.35 µM | TGI [35]: 18.1 µM | GI50 [36]: 4.22 µM | TGI [36]: 17.3 µM | GI50 [37]: 2.19 µM | TGI [37]: 13 µM | GI50 [38]: 1.64 µM | TGI [38]: 4.97 µM | GI50 [39]: 2.14 µM | TGI [39]: 5.8 µM | GI50 [40]: 6.77 µM | TGI [40]: 24.6 µM | GI50 [41]: 7.29 µM | TGI [41]: 21.4 µM | GI50 [42]: 10.3 µM | TGI [42]: 25.6 µM | GI50 [43]: 8.13 µM | TGI [43]: 24.2 µM | GI50 [44]: 10.9 µM | TGI [44]: 27.8 µM | GI50 [45]: 5.28 µM | TGI [45]: 18.2 µM | GI50 [46]: 8.36 µM | TGI [46]: 29.2 µM | GI50 [47]: 1.81 µM | TGI [47]: 3.77 µM | GI50 [48]: 4.83 µM | TGI [48]: 16.8 µM | GI50 [49]: 2.37 µM | TGI [49]: 18.2 µM | GI50 [50]: 1.68 µM | TGI [50]: 4.48 µM | GI50 [51]: 2.89 µM | TGI [51]: 11.6 µM | GI50 [52]: 2.84 µM | TGI [52]: 14.7 µM | GI50 [53]: 13 µM | TGI [53]: 26.9 µM | GI50 [54]: 2.08 µM | TGI [54]: 4.62 µM | GI50 [55]: 12.2 µM | TGI [55]: 35.8 µM | GI50 [56]: 3.7 µM | TGI [56]: 19.1 µM | GI50 [57]: 1.85 µM | TGI [57]: 9.06 µM
